Read-outs that look alike come from different tables or passages of the source. Ends that are not written are not given here.
Legend:
ER LBD [1] = biological target: T1, ER LBD (Homo sapiens, UniProt P03372); assay: Estrogenicity score in COS-7 cells cotransfected with pSimer-R2 and pSimer-G4; format: cell-based; design: cDNAs of ER LBD (305-550 AA) and phosphorylation-recognition domain of Src (SH2) were amplified by PCR; expressed in transfected cells; host or cells: COS-7
T1 sequence (P03372 305-550) 1: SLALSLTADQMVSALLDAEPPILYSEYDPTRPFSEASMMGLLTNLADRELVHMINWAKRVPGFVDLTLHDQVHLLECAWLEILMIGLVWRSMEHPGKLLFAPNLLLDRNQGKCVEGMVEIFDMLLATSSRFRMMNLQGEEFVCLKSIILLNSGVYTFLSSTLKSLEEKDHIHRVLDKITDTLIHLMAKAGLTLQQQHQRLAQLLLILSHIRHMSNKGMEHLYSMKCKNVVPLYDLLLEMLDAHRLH
T1 sequence (P03372 305-550) 2: T1 sequence (P03372 305-550) 1
Description: A COS-7 cells carrying both pSimer-R2 and pSimer-G4 were simulated with ligands for 20 minutes, and spectrum of luminescence emitted as a result with all wavelengths was observed (FIG. 11). […] The term genomic signal used herein refers to an intracellular signal involved in conventional protein expression in the nucleus. On the other hand, the term non-genomic signal means an intracellular signal not accompanying conventional protein expression. Typically, this is the general classification of intracellular signal transductions.
Further, from ratio of luminescence intensities between red signal (610 nm) and green signal (540 nm) induced by a ligand, it is possible to show numerically whether the measured ligand tends to genomic activity (also referred to as agonistic activity herein) or nongenomic activity (also referred to as antagonistic activity herein).

ER LBD [2] = biological target: T2, ER LBD (Homo sapiens, UniProt P03372)
T2 sequence (P03372 305-550): T1 sequence (P03372 305-550) 1

ER LBD [3] = biological target: T2, ER LBD; remark: listed apart in the source
ER LBD [4] = biological target: T1, ER LBD; assay: Estrogenicity score in COS-7 cells co-expressing pSimer-R2 and pSimer-G6
ER LBD [5] = biological target: T2, ER LBD; remark: listed apart in the source
ER LBD [6] = biological target: T2, ER LBD; assay: Ligand sensitivity of various cell lines carrying pSimer-R2 (red luminescence); conditions: pSimer-R2 in HeLa, COS-7, NIH 3T3 and MCF-7 cells; 20 minutes stimulation; each cell line
COS-7 cells = assay: Optimal LXXLL motif: ligand sensitivity of COS-7 cells carrying pSimer-G plasmids; format: cell-based, African Green Monkey; conditions: E2 or OHT for 20 minutes, compared among six pSimer-G plasmids
Description: As shown in the above (Table 1), six kinds of LXXLL motifs as those can be applied to each of […] backbones were prepared, and introduced into […]. Ligand sensitivity of COS-7 cells carrying either one of the six kinds of plasmids was measured (FIG. 8). […] Next, spectrum from the cells carrying […]6 with all wavelengths was measured, provided ligand was present and absent (FIG. 9).

[7] = [variation of luminescence intensity at 540 nm]/[variation at 610 nm], COS-7 cells, pSimer-R2 + pSimer-G6, 20 minutes stimulation
[8] = [variation of luminescence intensity at 540 nm]/[variation at 610 nm], COS-7 cells, pSimer-R2 + pSimer-G4, 20 minutes stimulation

Compound	increase in luminescence intensity (ER LBD [6])	Estrogenicity score (ER LBD [4]; [7])	Estrogenicity score (ER LBD [1]; [8])	further results
4-hydroxytamoxifen [OHT]	remarkable luminescence intensity	–	–	Estrogenicity score (ER LBD [1]): 0.62; concentration at which luminescence intensity peaked (ER LBD [2]): about 10^−5 M; time of peak luminescence intensity after stimulation (ER LBD [3]): 15 min; Estrogenicity score (ER LBD [4]): 0.38; concentration at which luminescence intensity peaked (ER LBD [5]): about 10^−5 M
CC(=O)[C@H]1CC[C@H]2[C@@H]3CCC4=CC(=O)CC[C@]4(C)[C@H]3CC[C@]12C [progesterone]	–	1.06	–	–
pSimer-G6: green luminescent probe, Rip140 motif 946 VCNESLLLQKLVNFS 932 (also: within green luminescent probe)	–	–	–	luminescence intensity ratio relative to control (S/N ratio) (COS-7 cells): strongest luminescence intensity ratio relative to control
C[C@]12CC[C@H]3[C@@H](CCC4=CC(=O)CC[C@@]43C)[C@@H]1CC[C@@H]2O [T, testosterone]	–	1.07	1.07	–
C[C@]12CC[C@@H]3c4ccc(O)cc4C[C@@H](CCCCCCCCC[S+]([O-])CCCC(F)(F)C(F)(F)F)[C@H]3[C@@H]1CC[C@@H]2O (stereo partly shown) [ICI, ICI182780]	remarkable luminescence intensity	1.08	0.86	–
